According to US20240358846A1, “Nanoparticles and Peptides for the Delivery of Cargos to Muscle Cells” (4BASEBIO, S.L.U., priority 2021, published 2024):

Experiments:
C2C12 cells [1] = test: GFP expression in C2C12 cells transfected with pDNA:lipid:peptide nanoparticles (flow cytometry, microscopy); format: cell-based, mouse; settings: 48 h; for cells expressing GFP (GFP expression level, transfection efficiency): pDNA:lipid:peptide nanoparticles, different targeting sequences, FIG. 2; for cells expressing GFP (GFP expression level, transfection efficiency) / GFP transfection efficiency: DD 2:1 with 20% cholesterol; for GFP transfection efficiency: pDNA:lipid:peptide, MD2 in different conformations, FIG. 4
Protocol: C2C12 cells, an immortalised mouse myoblast line, were cultured in Dulbecco's Modified Eagle's Medium (DMEM, Gibco) containing 10% fetal bovine serum (FBS, Gibco) and 1% pen/strep (Gibco).
Transfections in C2C12 cells were performed with a range of peptide:liposome:nucleic acid cargo ratios. Transfections were performed in a 96-well plate at a density of 8,000 cells per well seeded 24 h previously. Charge and mass ratio of components in the transfection complex varied; DNA was maintained at a constant mass of 300 ng per well, while lipid component was altered. In one case, the molar ratio of the cationic lipid C18 to the phospholipid DOPE was kept at 1:1 (DD). In another case, the molar ratio of the cationic lipid C18 to the phospholipid DOPE was kept at 2:1 (DD 2:1), while cholesterol was added at a molar percentage of 10 or 20% of the total lipid content. The mass ratio of linear DNA:liposome:peptide was maintained at 1:3:3, while the muscle-cell binding peptides were in some cases altered.
Transfection complexes were formed via electrostatic interaction by vigorous pipetting, before diluting in a final volume of 200 μl per well, with a DNA concentration of 1.5 ng/μl. All dilutions were performed with OptiMEM reduced serum media. Controls included cells with no transfection complexes added (OptiMEM only).
Transfection complexes were incubated for 30 min at RT before adding to cells. All conditions were performed in triplicate. Cells were incubated at 37° C. for 4 hours, before replacing media with growth media. 48 h post-transfection, the cells were rinsed in PBS, before incubation in 0.05% Trypsin EDTA (Gibco) to detach the cells. Cells were then re-suspended in PBS for analysis by flow cytometry.

C2C12 cells [2] = test: GFP expression in C2C12 cells transfected with mRNA:lipid:peptide nanoparticles; format: cell-based, mouse; settings: mRNA:lipid:peptide 1:5:2.5, DOTMA/DOPE 2:1 with 10% cholesterol, 500 ng/well, 4 h, FIG. 16
Protocol: Shown in FIG. 16 is GFP expression in C2C12 cells transfected with mRNA derived from linearised plasmid encapsulated in lipid-peptide nanoparticles.
(§1) Nanoparticles were formulated manually by pipetting following a mass ratios of 1:5:2.5 (mRNA:lipid:peptide). Firstly, the components mRNA, lipid and peptide were suspended in Ultra pure water in volumes of 60 ul, 60 ul and 80 ul, respectively. Components were mixed following the order-lipid to peptide, mRNA to lipid+peptide mix. Nanoparticles were allowed to incubate for 30 minutes at room temperature. All samples were diluted in serum-free media before transferring them onto cells. C2C12 cells were transfected with 500 ng/well of mRNA nanoparticles. The microplate was centrifuged at 12000 rpm for 5 minutes and incubated at 37 C for 4 hours. After 4 hours, cells were trypsinised and prepared for FAQs.

[3] = Size and PDI of mRNA:lipid:peptide nanoparticles (FIG. 19); format: physicochemical; settings: DOTMA/DOPE 2:1 with 10% cholesterol
Excerpt: Table presented in FIG. 19 presents size (nm) and polydispersity index (PDI) values for the mRNA:lipid:peptide nanoparticles. Sizes of fully formed nanoparticles range from 31 nm for MD2, to 37 nm for MD3 while nanoparticles formulated without a peptide are 61 nm. PDI value is low across all samples which translates into low polydispersity of the nanoparticle population.

[4] = Size and polydispersity index of closed linear DNA-lipid-peptide nanoparticles by DLS (FIG. 15); format: physicochemical; settings: C18/CHOL/DOPE (58/10/32)
Protocol: Dynamic Light Scattering (DLS) measurements were conducted using Zetasizer Ultra (Malvern Panalytical). Each bar represents average value of three measurements (n=3). Complexes were prepared as before, except formulated in nuclease-free water rather than Opti-MEM. Samples containing 0.7 μg closed linear DNA were diluted in 1 ml for analysis. Particles ranged from 37 nm (MD2L) to 57 nm (MD2CC), with PDI values ranging from 0.12 to 0.28. Liposomes encapsulating closed linear DNA with no targeting ligand were used as a control, with a larger size of 70 nm and PDI of 0.13.

C2C12 cells [5] = test: GFP expression in C2C12 cells transfected with closed linear DNA:lipid:peptide nanoparticles; format: cell-based, mouse; settings: DOTMA/DOPE 2:1 with 10% cholesterol, 300 ng/well, 48 h, FIG. 20
Protocol: GFP expression was measured 48 h post transfection. n=3 in all experiments, error bars=S.D. Nanoparticles containing no peptide were used as a control. […] Nanoparticles containing no peptide in their formulation lead to a transfection efficiency of 12% indicating the lowest transfection efficiency in treated cells.
as §1, with “1:3:2.1.6 (closed linear DNA:lipid:peptide).” for “1:5:2.5 (mRNA:lipid:peptide).”, “closed linear DNA,” for “components mRNA,”, “closed linear DNA” for “mRNA”, “300” for “500”, “closed linear DNA.” for “mRNA nanoparticles.”, “Flow Cytometry analysis.” for “FAQs.”

H9C2 cells = test: GFP expression in H9C2 cells transfected with nucleic acid-lipid-peptide nanoparticles (flow cytometry); format: cell-based, rat; settings: 300 ng/well; for cells GFP positive (transfection efficiency): 48 h post-transfection; for GFP positive cells (transfection efficiency): mRNA in lipid-peptide nanoparticles, 4 h post transfection, FIG. 13
Protocol: H9C2 cells, an immortalised cell line derived from embryonic rate heart tissue were cultured in Dulbecco's Modified Eagle's Medium (DMEM, Gibco) containing 10% fetal bovine serum (FBS, Gibco) and 1% pen/strep (Gibco).
Transfections in H9C2 cells were performed with a range of peptide:liposome:nucleic acid cargo ratios. Transfections were performed in a 96-well plate at a density of 8,000 cells per well seeded 24 h previously. Closed linear DNA/mRNA was maintained at a constant mass of 300 ng per well, while peptide component was altered. The molar ratio of the cationic lipid C18 to the phospholipid DOPE was kept at 2:1 (DD 2:1), while cholesterol was added at a molar percentage of 10% of the total lipid content. The mass ratio of closed linear DNA/mRNA:liposome:peptide was maintained at 1:5:2.52.
Transfection complexes were formed via electrostatic interaction by vigorous pipetting, before diluting in a final volume of 200 ul per well, with a DNA concentration of 1.5 ng/ul. All dilutions were performed with OptiMEM reduced serum media. Controls included cells with no transfection complexes added (OptiMEM only), complexes targeting a different cell, or complexes with no targeting sequence component.
Transfection complexes were incubated for 30 min at RT before adding to cells. All conditions were performed in triplicate. Cells were incubated at 37° C. for 4 hours, before replacing media with growth media.
In the case of mRNA, 4 h post-transfection, the cells were rinsed in PBS, before incubation in 0.05% Trypsin EDTA (Gibco) to detach the cells. Cells were then resuspended in PBS for analysis by flow cytometry. In the case of closed linear DNA, 48 h post-transfection, the cells were rinsed in PBS, before incubation in 0.05% Trypsin EDTA (Gibco) to detach the cells. Cells were then resuspended in PBS for analysis by flow cytometry.

[6] = Size and PDI of miRNA-lipid-peptide complexes, hand-mixing vs microfluidics (DLS); format: physicochemical; settings: FIG. 23; for size of complexes: C18/DOPE 2:1 with 10% cholesterol
Excerpt: Shown in FIG. 23 is size and polydispersity index (PDI) of miDNA-lipid-peptide complexes formulated through two different methods: hand-mixing—where complexes are formed by vigorous pipetting using a micropipette; or through a microfluidics platform. The lipid components comprised of C18/DOPE at a molar ratio of 2:1 with 10% cholesterol. The final formulation was following a mass ratio of 1:5 closed linear DNA:liposomes with N/P ratio of 6 driven by the peptide C1L-N-16-K16GAAPWHLSSQYSRT (SEQ ID NO: 49).
The hand-mixed complexes were formed by firstly suspending each of the components in ultra pure water, with the following mixing order-liposomes to peptide, closed linear DNA to liposomes+peptide complexes. Nanoparticles were allowed to incubate for 30 minutes at room temperature prior to a further dilution in water required for biophysical charaterisation by a DLS system (Zetasizer Ultra-Malvern).
For complexes formed through a microfluidics device (Nanoassemblr Ignite-Precision Nanosystems), lipid components were suspended in 99% pure ethanol at identical ratios to hand-mixed particles. Lipid components in ethanol were loaded onto the instrument along with miRNA and peptide C1L, both suspended in water. A flow rate ratio (FRR) of 1:3 of miRNA to lipid was mixed together at a total flow rate (TFR) of 12 mL/min prior to the addition of the peptide (FRR of 1:1, TFR 12 mL/min). The complexes formulated using the Nanoassemblr we then dialysed for 4 h using a Slide-a-Lyzer dialysis cassette (ThermoFisher) to remove residual ethanol.

HEK293 cells [7] = test: GFP expression in HEK293 cells transfected with plasmid DNA-peptide complexes or DNA-lipid-peptide nanoparticles; format: cell-based; settings: particles formed using DNA and peptide only, 48 h, FIG. 5
Protocol: GFP expression was imaged 48 h post transfection. n=3 in all experiments, error bars=S.D.
The high expression in C2C12 compared with HEK293 cells is particularly impressive owing to the high transfection efficiency achievable in HEK293 cells.

[8] = Biophysical characterisation of DNA-lipid-peptide nanoparticle (DLS, ELS, MADLS); format: physicochemical
Protocol: The size in nm by Dynamic Light Scattering (DLS), zeta potential in mV by Electrophoretic Light Scattering (ELS), and concentration of particles per ml by Multi-Angle Dynamic Light Scattering (MADLS) of the hpDNA-lipid-peptide nanoparticles was determined using the Zetasizer Ultra (Malvern). Complexes were prepared as before, except formulated in nuclease-free water rather than Opti-MEM. Samples containing 0.7 μg plasmid were diluted in 1 ml for analysis.

HEK293 cells [9] = test: In-vitro transfection efficiency in HEK293 cells of closed linear DNA nanoparticles stored at +4° C. (luciferase assay); format: cell-based; settings: 300 ng closed linear DNA nanoparticles stored up to 40 weeks at +4° C., tested every 5 weeks, FIG. 22B
Protocol: Nanoparticles were transfected in HEK293 cells at 5 week intervals. GFP expression was measured 48 h post transfection. n=3 in all experiments.
Shown in FIG. 22B is relative luminescence units per microgram of protein (RLU/mg of protein) of HEK293 cells transfected with closed linear DNA nanoparticles stored for 40 weeks at +4° C. […] Cells were transfected with 300 ng of closed linear DNA nanoparticles every 5 weeks.

[10] = plasmid DNA-lipid-peptide nanoparticles, FIG. 10
[11] = closed linear DNA-lipid-peptide nanoparticles, FIG. 11

## RRQPPRSISSHP [MD2]
C2C12 cells [1]; C2C12
  cells expressing GFP (GFP expression level, transfection efficiency): 50.1%
C2C12 cells [2]
  cells expressing GFP (transfection efficiency): 59%
[3]
  size: 31 nm

## KKKKKKKKKKKKKKKKRVRRGACRRQPPRSISSHPC [MD2CC]
C2C12 cells [1]; C2C12
  GFP transfection efficiency: 50.06%
[4]
  size (DLS): 57 nm

## KKKKKKKKKKKKKKKKRVRRGACSKTFNTHPQSTPC [MD3CC]
C2C12 cells [5]
  cells expressing GFP (transfection efficiency): 25%

## KKKKKKKKKKKKKKKKGAASSLNIA [MD1L]
H9C2 cells; [10]
  cells GFP positive (transfection efficiency): 20%

## KKKKKKKKKKKKKKKKRVRRGACASSLNIAC [MD1CC]
C2C12 cells [5]
  cells expressing GFP (transfection efficiency): 29%

## KKKKKKKKKKKKKKKKGAAPWHLSSQYSRT [C1L-N-16]
[6]; hand-mixed
  size of complexes: 60 nm
  PDI: 0.23
[6]; microfluidics
  size of complexes: 40 nm
  PDI: 0.16

## SKTFNTHPQSTP [MD3]
C2C12 cells [1]; C2C12
  cells expressing GFP (GFP expression level, transfection efficiency): 22.68%
C2C12 cells [2]
  cells expressing GFP (transfection efficiency): 72%
[3]
  size: 37 nm

## ASSLNIA [MD1]
C2C12 cells [1]; C2C12
  cells expressing GFP (GFP expression level, transfection efficiency): 73%
C2C12 cells [2]
  cells expressing GFP (transfection efficiency): 73%

## KKKKKKKKKKKKKKKKKKKKKKKKKKKKKKGACRRQPPRSISSHPC [MD2C-K30, targeting peptide named MD2C-K30]
H9C2 cells; [11]
  cells GFP positive (transfection efficiency): 5%

## KKKKKKKKKKKKKKKKGACRRQPPRSISSHPC [MD2C]
C2C12 cells [1]; C2C12
  GFP transfection efficiency: 30.08%
C2C12 cells [1]; C2C12, particles formed using DNA and peptide only, FIG. 5
  GFP expression visualised by microscopy: some GFP expression
C2C12 cells [1]; fully formed nanoparticle with lipid DD with 10% cholesterol, FIG. 5
  GFP expression, C2C12 compared to HEK293 cells (specificity): much higher in C2C12 cells as compared to HEK293 cells
HEK293 cells [7]
  GFP expression visualised by microscopy: No GFP expression
[8]; DNA-lipid-peptide nanoparticle, C18 (DOTMA) DOPE 10% cholesterol, FIG. 6A
  size of the particle (DLS): 89.4 nm
[8]; DNA-lipid-peptide nanoparticle, C18 (DOTMA) DOPE 10% cholesterol, FIG. 6B
  zeta potential (ELS): 24.8 mV
[8]; accounting for the 1 in 100 dilution, FIG. 6E, F
  particle titre (MADLS): 10 E12 particles per ml
H9C2 cells; [11]
  cells GFP positive (transfection efficiency): 6%
H9C2 cells; [10]
  cells GFP positive (transfection efficiency): 26%

## KKKKKKKKKKKKKKKKGAWLSEAGPVVTVRALRGTGSW [C2L-N-16]
H9C2 cells
  GFP positive cells (transfection efficiency): 26%

## KKKKKKKKKKKKKKKKGARRQPPRSISSHP [MD2L]
C2C12 cells [1]; C2C12
  GFP transfection efficiency: 8.24%
H9C2 cells
  GFP positive cells (transfection efficiency): 33%
H9C2 cells; [10]
  cells GFP positive (transfection efficiency): 27%
[4]
  size (DLS): 37 nm
HEK293 cells [9]
  transfection efficiency after storage (luminescence signal, luciferase assay): sustained luminescence signal across all time points
